Measurements reported in ChEMBL document CHEMBL6092194, “Development of membrane-targeting chalcone derivatives as antibacterial agents against multidrug-resistant bacteria” (Eur J Med Chem, 2024).
Activity calls are given as the source filed them. The calls are words filed in the database; no cut-off is given here.

Columns and labels:
[1] = test system: Cell membrane; experiment: Disruption of cell membrane in Escherichia coli ATCC25922 assessed as increase in protein leakage; type: subcellular; conditions: dose 1-8 µg/ml
[2] = test system: Escherichia coli; experiment: Ratio of MBC for Escherichia coli ATCC25922 in presence of 50% blood to MBC for Escherichia coli ATCC25922 in Mueller Hinton Broth; type: functional
[3] = test system: Staphylococcus aureus; experiment: Antibacterial activity against Staphylococcus aureus ATCC43300 infected in sepsis mouse model assessed as log reduction in bacterial load in blood at 10 mg/kg pre-infected with bacteria for 1 hrs followed by compound administration at 12 hrs interval for 2 days relative to control; type: functional; conditions: time 2 day
[4] = test system: Cell membrane; experiment: Disruption of cell membrane in Staphylococcus aureus ATCC43300 assessed as increase in intracellular ROS level by measuring fold increase in fluorescence intensity at 8 microg/ml by DCFH-DA staining based fluorescence analysis relative to blank control group; conditions: dose 8.0 µg/ml
[5] = test system: Staphylococcus aureus; experiment: Induction of morphological changes in Staphylococcus aureus ATCC43300 assessed as disruption of cell membrane by scanning electron microscopic analysis; type: functional, organism-based
[6] = test system: Cell membrane; experiment: Induction of cytoplasmic membrane depolarization in Staphylococcus aureus ATCC43300 assessed as fold increase in fluorescence intensity at 4 microg/ml measured after 24 mins by DiSC3(5) dye-based fluorescence assay relative to negative control; conditions: dose 4.0 µg/ml
[7] = test system: Staphylococcus aureus; experiment: Antibacterial activity against penicillin-resistant Staphylococcus aureus ATCC31007 by broth microdilution assay; type: functional
[8] = test system: Cell membrane; experiment: Induction of outer membrane permeabilization in Escherichia coli ATCC25922 assessed as fold increase in fluorescence intensity at 8 microg/ml incubated for 20 mins by NPN uptake assay; type: subcellular; conditions: dose 8.0 µg/ml
[9] = test system: Escherichia coli; experiment: Antibacterial activity against Escherichia coli ATCC25922 infected in sepsis mouse model assessed as reduction in spleen damage at 5 to 10 mg/kg pre-infected with bacteria for 1 hrs followed by compound administration at 12 hrs interval for 2 days by H and E staining based analysis; type: functional, organism-based; conditions: dose 5-10 mg/kg, time 2.0 day
[10] = test system: Cell membrane; experiment: Induction of cytoplasmic membrane depolarization in Escherichia coli ATCC25922 assessed as fold increase in fluorescence intensity at 8 microg/ml measured within 24 mins by DiSC3(5) dye-based fluorescence assay relative to negative control; type: subcellular; conditions: dose 8.0 µg/ml
[11] = test system: Staphylococcus aureus; experiment: Induction of morphological changes in Staphylococcus aureus ATCC43300 assessed as collapse of cell membrane by scanning electron microscopic analysis; type: functional, organism-based
[12] = test system: Staphylococcus aureus; experiment: Antibacterial activity against Staphylococcus aureus ATCC43300 infected in sepsis mouse model assessed as reduction in spleen inflammation at 5 to 10 mg/kg pre-infected with bacteria for 1 hrs followed by compound administration at 12 hrs interval for 2 days by H and E staining based analysis; type: functional, organism-based; conditions: dose 5-10 mg/kg, time 2.0 day
[13] = test system: Escherichia coli; experiment: Disruption of preformed biofilm in Escherichia coli ATCC25922 assessed as eradication of biofilm at 8 microg/ml relative to control; type: functional; conditions: dose 8 µg/ml
[14] = test system: Cell membrane; experiment: Disruption of cell membrane in Staphylococcus aureus ATCC43300 assessed as increase in intracellular ROS level by DCFH-DA staining based fluorescence analysis; type: subcellular; conditions: dose 1-8 µg/ml
[15] = test system: Cell membrane; experiment: Disruption of cell membrane in Staphylococcus aureus ATCC43300 assessed as fold increase in protein leakage at 8 microg/ml relative to control; type: subcellular; conditions: dose 8.0 µg/ml
[16] = test system: Staphylococcus aureus; experiment: Bactericidal activity against Staphylococcus aureus ATCC43300 in presence of 50% blood; type: functional
[17] = test system: Escherichia coli; experiment: Antibacterial activity against Escherichia coli ATCC25922 infected in sepsis mouse model assessed as log reduction in bacterial load in liver at 5 mg/kg pre-infected with bacteria for 1 hrs followed by compound administration at 12 hrs interval for 2 days relative to control; type: functional; conditions: time 2 day
[18] = test system: Staphylococcus aureus; experiment: Antibacterial activity against Staphylococcus aureus ATCC43300 infected in sepsis mouse model assessed as log reduction in bacterial load in liver at 10 mg/kg pre-infected with bacteria for 1 hrs followed by compound administration at 12 hrs interval for 2 days relative to control; type: functional; conditions: time 2 day
[19] = test system: Escherichia coli; experiment: Induction of morphological changes in Escherichia coli ATCC25922 assessed as rough appearance of cell membrane by scanning electron microscopic analysis; type: functional, organism-based
[20] = test system: Staphylococcus aureus; experiment: Antibacterial activity against penicillin-resistant Staphylococcus aureus ATCC43300 by broth microdilution assay; type: functional
[21] = test system: Escherichia coli; experiment: Ratio of MBC for Escherichia coli ATCC25922 in presence of 50% serum to MBC for Escherichia coli ATCC25922 in Mueller Hinton Broth; type: functional
[22] = test system: Cell membrane; experiment: Induction of cytoplasmic membrane depolarization in Staphylococcus aureus ATCC43300 assessed as increase in fluorescence intensity at 8 microg/ml measured after 24 mins by DiSC3(5) dye-based fluorescence assay; conditions: dose 8.0 µg/ml
[23] = test system: Staphylococcus aureus; experiment: Antibiofilm activity against Staphylococcus aureus ATCC43300 assessed as inhibition of biofilm formation; type: functional, organism-based
[24] = test system: Cell membrane; experiment: Disruption of cell membrane in Escherichia coli ATCC25922 assessed as increase in DNA leakage; conditions: dose 1-8 µg/ml
[25] = test system: Cell membrane; experiment: Disruption of cell membrane in Staphylococcus aureus ATCC43300 assessed as appearance of blue fluorescence by DAPI staining based fluorescence microscopic analysis
[26] = Cytotoxicity against human L02 cells by CCK8 assay; type: toxicity, cell-based
[27] = test system: Escherichia coli; experiment: Bactericidal activity against Escherichia coli ATCC25922 assessed as bacterial killing at 8 times of MIC measured after 8 hrs by time-kill kinetics assay relative to control; type: functional
[28] = test system: Cell membrane; experiment: Induction of outer membrane permeabilization in Escherichia coli ATCC25922 assessed as increase in fluorescence intensity incubated for 20 mins by NPN uptake assay; type: subcellular; conditions: dose 0.5-8 µg/ml
[29] = test system: Cell membrane; experiment: Disruption of cell membrane in Escherichia coli ATCC25922 assessed as increase in intracellular ROS level by measuring fold increase in fluorescence intensity at 8 microg/ml by DCFH-DA staining based fluorescence analysis relative to blank control group; conditions: dose 8.0 µg/ml
[30] = test system: Staphylococcus aureus; experiment: Antibacterial activity against Staphylococcus aureus ATCC43300 infected in sepsis mouse model assessed as reduction in liver inflammation at 5 to 10 mg/kg pre-infected with bacteria for 1 hrs followed by compound administration at 12 hrs interval for 2 days by H and E staining based analysis; type: functional, organism-based; conditions: dose 5-10 mg/kg, time 2.0 day
[31] = Toxicity in BALB/c mouse assessed as survival rate at 20 to 50 mg/kg, ip administered for 7 days relative to control; type: organism-based; conditions: in vivo, dose 20-50 mg/kg, time 7 day
[32] = test system: Staphylococcus aureus; experiment: Antibacterial activity against Staphylococcus aureus ATCC43300 infected in sepsis mouse model assessed as log reduction in bacterial load in spleen at 5 mg/kg pre-infected with bacteria for 1 hrs followed by compound administration at 12 hrs interval for 2 days relative to control; type: functional; conditions: time 2 day
[33] = test system: Staphylococcus aureus; experiment: Selectivity ratio of MBC for Staphylococcus aureus ATCC43300 in presence of 50% serum to MBC for Staphylococcus aureus ATCC43300 in Mueller Hinton Broth; type: functional
[34] = Cytotoxicity against human L02 cells assessed as cell viability at 8 microg/ml by CCK8 assay relative to control; type: toxicity, cell-based; conditions: at 8 µg/mL, read-out: Activity
[35] = Selectivity ratio of MBC for Staphylococcus aureus ATCC43300 in presence of 50% plasma to MBC for Staphylococcus aureus ATCC43300 in Mueller Hinton Broth; type: functional

With `CCCCCCOc1cc[n+](CCCOc2ccc(/C=C/C(=O)c3ccc(OCCC[n+]4ccc(OCCCCCC)cc4)cc3)cc2)cc1.[Br-].[Br-]` the Activity [1] was “Dose-dependent-effect”, the Ratio [2] was < 2 and the “log(activity)” value [3] was 1.61. The fold change (FC) [4] was 1.7, the Activity [5] was “Active” and the fold change (FC) [6] was 5.8. The MIC [7] was 1 µg/mL, the fold change (FC) [8] was 2.5 and the Activity [9] was “Active”. The fold change (FC) [10] was 7.5, the Activity [11] was “Active” and the Activity [12] was “Active”. For the same compound, the Activity [13] was 41.61%, the Activity [14] was “Dose-dependent-effect” and the fold change (FC) [15] was 7.5. The MIC [16] was 16 µg/mL, the “log(activity)” value [17] was 2.52 and the “log(activity)” value [18] was 2.13. The Activity [19] was “Active”, the MIC [20] was 0.5 µg/mL and the Ratio [21] was < 2. The Activity [22] was “Active; Fluorescence Intensity Surpassed The Melittin Group”, the Activity [23] was “Dose-dependent-effect” and the Activity [24] was “Dose-dependent-effect”. The Activity [25] was “Active”, the CC50 [26] was 25.9 µg/mL and the Activity [27] was 100%. For the same compound, the Activity [28] was “Dose-dependent-effect”, the fold change (FC) [29] was 1.5 and the Activity [30] was “Active”. The survival at 168 h [31] was 100%, the “log(activity)” value [32] was 1.02 and the Ratio [33] was < 2. The viability at 8 microg/ml [34] was 93.9% and the Ratio [35] was <2.
